Results on 1 compound are retold here after patent publication US9326938B2 (National Yang Ming Unviversity, priority 2013, dated 2016).

A short description of data set [1]: Body weight of mice in antitumor study. Format: in vivo, Balb-c/nude mice. The following applies: 10 mg/kg i.v. on days 0 and 7, during the administration period. The method, then:
(§1) The HCT116 cells were transplanted subcutaneously into the rear of 4-week female Balb-c/nude mice (1×10^6 cells/0.1 mL) At 4-6 weeks post-transplantation, HCT116 tumor-bearing mice (tumor volume: approximately 500 mm^3) were used in the antitumor activity study. Mice were treated i.v. via the tail vein on days 0 and 7. Animals were then injected with a drug PBS solution (free Dox, Dox-loaded polymer-incorporated nanoparticles, and Dox-loaded oligomer-contained nanoparticle complexes at a dose of 10 mg/kg). Tumor size was measured three weekly using a Vernier's caliper. To evaluate animal wellness and clinical status, the body weight of mice was recorded.

The test system of data set [2] is HCT116 tumor-bearing mice. In words: In vivo antitumor activity. More on the design: species or system Balb-c/nude mice. As to conditions: 10 mg/kg i.v. on days 0 and 7, compared to control mice. The method, then: as §1

As to `COc1cccc2c1C(=O)c1c(O)c3c(c(O)c1C2=O)C[C@@](O)(C(=O)CO)C[C@@H]3O[C@H]1C[C@H](N)[C@H](O)[C@H](C)O1` [free Dox, doxorubicin], in data set [1], the “Body weight of mice” value is on record as “obvious weight loss”. For the same compound, the Tumor growth result in data set [2] is on record as “inhibited tumor growth”.
